Data set [1] addresses T1, GABAA receptors (human α1 GABRA1 and rat β2 GABRB2 subunits) (UniProt P14867+P63138).
T1 construct: expressed in transfected cells; host or cells: Xenopus laevis oocytes (intranuclear DNA injection)
As to the kind of experiment: Two-electrode voltage clamp of GABAA receptors expressed in Xenopus oocytes. The format is cell-based. Particulars: for effect on GABAA receptor currents: dose-response, oocytes. The text has this:
Ovaries removed from sexually mature Xenopus laevis frogs were bluntly dissected to remove surrounding connective tissue and then digested with 0.2% type I collagenase in an oocyte Ringer's solution. Once free from thecal cells and connective tissue, individual oocytes were rinsed, sorted, and stored in a modified Barth's solution (R. Brosnan et al., […]. 103, (2006): 86; L. Yang, P. S. Milutinovic, […]. Sonner, […]. 105, (2007): 393; […]. Fukushima, & […]. 44, (2017): 577; […], Pharmacology 103, (2019): 10). Heteromeric GABAA receptors were expressed in oocytes by blind intranuclear injection of 1 ng DNA encoding the human al (GABRA1) and rat B2 (GABRB2) subunits in a 1:1 ratio. NMDA receptors were expressed by intracytoplasmic injection of 5 ng RNA encoding rat NR1 (GRIN1) and rat NR2a (GRIN2A) subunits in a 1:1 ratio. Nax 1.2 channels were expressed by injection of 5 ng RNA encoding the human SCN2A gene. Two-electrode voltage clamp studies of GABAA receptors were carried out in a 0.25-mL linear perfusion chamber. Perfusates were delivered by using a syringe pump at 1.5 mL/min using gastight glass syringes and polytetrafluoroethylene tubing. […] King Precision Glass, Claremont, CA, USA) connected to separate […] (Axon Instruments HS2A; Molecular Devices, San Jose, CA, USA) through which voltage was clamped at -80 mV and current was passed via a computer-controlled amplifier (Axon Instruments GeneClamp 500B; Molecular Devices). Oocytes were perfused with frog Ringer's (FR) solution containing 115 mM NaCl, 2.5 mM KCl, 1.8 mM CaCl2), and 10 mM HEPES prepared from ACS-grade chemicals and 18.2 MΩ H2O, filtered and pH adjusted to 7.4. […] After 30 s, the perfusate was switched back to FR solution. This process was repeated until a stable baseline response was achieved. Next, FR containing either L-carvone (99%; Sigma-Aldrich, St. Louis, MO, USA) or methyl salicylate (>99%; Sigma-Aldrich) at the test concentration was used to perfuse the oocyte for 1.5 min, and then the oocyte was perfused with FR+GABA solution containing this same drug and concentration for 30 s. […] Uninjected oocytes served as negative controls. Only one drug and concentration were studied per oocyte. […] Percent change in current was calculated as follows: [formula] • where IB is the baseline pre-drug current peak and ID is the drug current peak. For each drug and ion channel, data were fit to a Hill equation using nonlinear regression with sequential quadratic programming and bootstrap estimates of parameter standard errors (SPSS, v. 27; IBM, Armonk, NY, USA). In the model, maximum drug inhibition (Imax) was constrained to not be less than -100%. Initial parameter estimates were seeded with values based on visual inspection of respective dose-response curves in order to facilitate model convergence.
In general terms: Two-electrode voltage clamp is typically applied to oocytes expressing channels or transporters.

The conditions of data set [2]: cited from earlier work.
In data set [3] the target is T2, human benzodiazepine-sensitive α1β2γ2s GABAA receptors (Homo sapiens, UniProt P14867+P18507+P47870).
T2 construct: host or cells: frog oocytes
T2 sequence (P14867 28-456): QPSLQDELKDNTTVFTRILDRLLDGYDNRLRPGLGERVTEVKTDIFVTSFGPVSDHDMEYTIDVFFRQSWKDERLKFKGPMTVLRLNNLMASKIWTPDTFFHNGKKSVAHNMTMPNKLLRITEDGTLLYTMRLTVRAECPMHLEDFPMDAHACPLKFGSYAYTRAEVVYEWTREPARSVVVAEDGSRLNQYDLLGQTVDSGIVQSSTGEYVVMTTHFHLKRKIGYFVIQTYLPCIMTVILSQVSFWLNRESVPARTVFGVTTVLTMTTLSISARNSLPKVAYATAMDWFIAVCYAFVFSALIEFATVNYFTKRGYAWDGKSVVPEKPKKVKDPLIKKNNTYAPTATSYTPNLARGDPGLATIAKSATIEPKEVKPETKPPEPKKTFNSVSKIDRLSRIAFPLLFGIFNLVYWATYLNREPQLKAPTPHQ
T2 sequence (P47870 26-474 isoform P47870-1 limits assumed): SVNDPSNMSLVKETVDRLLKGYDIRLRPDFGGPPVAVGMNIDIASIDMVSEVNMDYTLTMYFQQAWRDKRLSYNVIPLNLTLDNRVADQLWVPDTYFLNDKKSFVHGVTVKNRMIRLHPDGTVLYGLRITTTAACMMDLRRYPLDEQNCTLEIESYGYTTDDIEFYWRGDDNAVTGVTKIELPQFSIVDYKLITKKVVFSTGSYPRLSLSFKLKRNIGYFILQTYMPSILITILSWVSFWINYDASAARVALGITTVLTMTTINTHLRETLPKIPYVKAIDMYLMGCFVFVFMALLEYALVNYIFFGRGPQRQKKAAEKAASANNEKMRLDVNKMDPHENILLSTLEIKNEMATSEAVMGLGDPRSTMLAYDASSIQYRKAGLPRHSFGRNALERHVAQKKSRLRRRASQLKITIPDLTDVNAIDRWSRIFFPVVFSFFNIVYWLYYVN
T2 sequence (P18507 40-467 isoform P18507-1 limits assumed): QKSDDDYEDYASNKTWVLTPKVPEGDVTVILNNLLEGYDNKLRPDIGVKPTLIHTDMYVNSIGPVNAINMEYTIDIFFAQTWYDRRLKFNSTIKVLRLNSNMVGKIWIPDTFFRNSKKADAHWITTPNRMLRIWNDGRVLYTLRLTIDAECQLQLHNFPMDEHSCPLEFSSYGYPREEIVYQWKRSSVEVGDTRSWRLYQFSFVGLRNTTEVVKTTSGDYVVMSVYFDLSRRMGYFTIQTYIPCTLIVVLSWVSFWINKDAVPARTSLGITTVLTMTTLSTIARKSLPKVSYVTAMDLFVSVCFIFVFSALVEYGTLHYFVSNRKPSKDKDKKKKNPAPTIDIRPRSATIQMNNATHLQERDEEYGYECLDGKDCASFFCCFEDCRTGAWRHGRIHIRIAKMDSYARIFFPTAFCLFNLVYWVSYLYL
The settings on record: concentrations up to 0.12 mM; cited from earlier work.

In data set [4] the test system is GABAA receptors, rat cerebral cortex cell cultures. The settings on record: 0.75 mM; cited from earlier work.
The subject of a further data set is rat sciatic nerves. Particulars: read-out: IC50, decrease of compound action potentials; cited from earlier work.
In data set [5] the test system is sciatic nerve axon of frogs. Particulars: frog sciatic nerve axon; read-out: IC50, decrease of compound action potential amplitude; cited from earlier work.
Setting [6] is: at the mean plasma concentration during IV infusion anesthesia in rats.

The values below come from US20240226034A1, “Use of Terpenoids and Salicylates as Anesthetics and Analgesics” (THE REGENTS OF THE UNIVERSITY OF CALIFORNIA, priority 2021, published 2024).

Several values for one entry are separate records, joined by “and”; a condition that tells them apart may be missing. Equal values may be shown once. Entries after “also recorded” stand apart in the source; their conditions may differ.

T1 sequence (P14867 28-456): as the sequence (P14867 28-456) above
T1 sequence (P63138 25-474 limits assumed): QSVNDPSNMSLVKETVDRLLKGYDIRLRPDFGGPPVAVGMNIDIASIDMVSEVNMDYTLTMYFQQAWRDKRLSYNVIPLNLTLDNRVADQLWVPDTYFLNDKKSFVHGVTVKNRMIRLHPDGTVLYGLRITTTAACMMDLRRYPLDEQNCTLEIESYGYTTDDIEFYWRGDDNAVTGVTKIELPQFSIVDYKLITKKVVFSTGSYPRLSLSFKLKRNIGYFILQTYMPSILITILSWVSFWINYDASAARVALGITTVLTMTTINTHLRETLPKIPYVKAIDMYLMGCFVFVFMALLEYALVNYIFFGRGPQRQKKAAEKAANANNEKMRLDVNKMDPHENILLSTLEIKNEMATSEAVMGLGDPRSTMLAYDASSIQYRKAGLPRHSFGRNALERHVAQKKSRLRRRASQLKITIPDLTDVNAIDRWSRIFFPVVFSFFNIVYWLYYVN

By IC50 is commonly meant the concentration that gives 50% inhibition. For the compound `COC(=O)c1ccccc1O` [methyl salicylate], in data set [1] (setting [6]), the “potentiation of GABAA receptors” value turned out to be 30%. The “effect on GABAA receptor currents” value in data set [1] is on record as “potently inhibited; also recorded: biphasic effect”. In data set [1] (high-affinity inhibitory site, 50 μM GABA, oocytes clamped at −80 mV, read-out: IC50, inhibition of GABAA receptor currents), the IC50 is 0.11 µM and ~0.1 µM. Also, the “Hill coefficient, GABAA receptor potentiation site” value in data set [1] (low-affinity binding) was “less than 1”. Besides, the “concentration for second positive allosteric GABAA site relative to high-affinity site” value in data set [1] (potentiation site vs inhibitory site) is listed as “about 50,000 times”. Besides, in data set [1] (second site, high concentrations, read-out: median effective concentration, potentiation of GABAA currents), the EC50 was 5300 µM. Also, the “solubility in water relative to cutoff values for modulation of the 3 ion channels” value in data set [2] is reported as “more soluble in water than the cutoff values”.

For the compound L-carvone, the “response of α1β2γ2s GABAA receptors” value in data set [3] was “minimal response”. Besides, the “reduction of GABAA-induced benzodiazepine binding” value in data set [4] was 36%. Moreover, the concentration for half-maximal inhibition (IC50) in the data set with rat sciatic nerves is 8700 µM; in data set [5] it was 1400 µM. Moreover, the “GABAA receptor current at highest concentration” value in data set [1] (10 mM drug) is reported as “near or complete loss of channel currents; also recorded: almost entirely inhibited”. For the same compound, the “inhibition of GABAA receptors” value in data set [1] (setting [6]) is on record as 96%. Moreover, in data set [1] (dose-response model), the “Hill coefficient, GABAA receptor inhibition” value is recorded as about 1. Moreover, in data set [1], the “effect on GABAA receptor currents” value is “dose-dependent inhibition”.
